The nature of series [1]: Pharmacokinetic study of four steroidal saponins in rat plasma after oral administration of A. asphodeloides fractions (UPLC-MS/MS). In kind it is in vivo, Sprague-Dawley rats. To be noted: rat, in vivo, po; for AUC(0-t) / half-life / Cmax / Tmax: male, Sprague-Dawley, 400 mg/kg. On the procedure: The dried A. asphodeloides were chopped into slices before using. The A. asphodeloides was immersed in water (1:10, w/v) and extracted twice by refluxing for 2 h. After filtration, the supernatant was condensed to a certain volume under reduced pressure, and 95% ethanol was added to the water extract filtrates until the concentration of ethanol was 80%. The precipitate was filtered as the macromolecular fraction (MF), the ethanol supernatant was concentrated under reduced pressure to a certain volume under vacuum and then purified by gradient elution with water, 40% ethanol and 70% ethanol from an AB-8 MARO porous resin column and then the water-eluted fraction was combined with the 40% ethanol-eluted fraction as the small molecule fraction (SF) and the 70% ethanol eluted fraction was the A. asphodeloides saponins extract (ASE). All of the residues were lyophilized and the resulting dry powder was stored at 4 °C before usage. The contents of four steroidal saponins in ASE dry powder were measured quantitatively by the external standard method using the same chromatography conditions as described above. The contents of timosaponin BII, anemarsaponin BIII, timosaponin AIII and timosaponin E1 in ASE were 429.12, 89.81, 59.13 and 41.25 mg/g, respectively.
Frozen plasma samples were unfrozen at room temperature and treated as follows: to each 200 µL plasma sample, 20 µL of IS (920 ng/mL ginsenoside Re) working solution and 600 µL of acetonitrile were added. After vortexing for 2 min and centrifugation at 13,000 rpm at 4 °C for 10 min the supernatant was transferred into a new tube and evaporated to dryness in a rotary evaporator at 39 °C and the residue was reconstituted in 100 µL of 0.1% formic acid–acetonitrile (50:50, v/v), vortexed for 2 min and centrifuged at 13,000 rpm at 4 °C for 10 min. The supernatant was transferred to an autosampler vial and an aliquot of 2 μL was injected onto the UPLC-MS/MS system for analysis.
Male Sprague-Dawley rats (250–280 g) were obtained from the Shanghai Slac Laboratory Animal Co., Ltd. (Shanghai, China). All animals were kept in an environmentally controlled breeding room (temperature: 20–25 °C, humidity: 55%–65%) for 1 week before the experiments started. Animal welfare and experimental procedures were strictly in accordance with the ethical norms of the Nanjing University of Chinese Medicine. All rats were fasted for 12 h with free access to water prior to the experiments, twenty-four rats were divided into four groups and then were given a single dose of ASE, ASE-SF, AS-MF, AS-M-SF. A 40 mg/mL ASE (the amount of MF, SF added to group AS-MF, ASE-SF, AS-M-SF were based on the proportion extracted from A. asphodeloides) aqueous solution in each group was administered orally at a dose of 400 mg/kg, which contained 171.61, 35.92, 23.62, 16.53 mg/kg of timosaponin BII, anemarsaponin BIII, timosaponin AIII, timosaponin E1, respectively.
About 400 μL blood samples were collected from venipuncture before intragastric gavage and at 0.083, 0.25, 0.5, 1, 1.5, 2, 4, 6, 8, 10, 12, 24 h after a single oral administration. The blood samples were immediately transferred to heparinized tubes and centrifuged at 3000 rpm for 10 min, and the supernatant was transferred into 2.0 mL Eppendorf tubes and stored at −80 °C prior to analysis. Blank plasma was obtained from the rat without oral administration and was used to investigate the assay development and validation.
To calculate the pharmacokinetic parameters of analytes in different group, concentrations–time dada were analyzed by DAS 3.2 software (Mathematical Pharmacology Professional Committee of China, Shanghai, China, 2011). Data were measured as the mean ± standard deviation (S.D.) with triplicate measurements. The identification of significances between different groups was executed with Student’s t-test. A p value < 0.05 was considered statistically significant.

Details of series [2]: method as in PMID 20686523, PMID 23542670. To be noted: plasma concentration peak; cited from earlier work.

The structures appear in SMILES notation. Read-outs that look alike come from different tables or passages of the source.

By AUC(0-t) is commonly meant exposure summed from dosing to a finite time, without extrapolation to infinity. A low value points to low exposure. The term half-life denotes how long it takes for the measured level to halve. Low readings indicate fast loss, high ones slow loss. For orientation: Cmax means the maximum level reached in the sampled fluid or tissue. In general, Tmax refers to the time from dosing to the highest level. Regarding `CC(CCC1(O)OC2C(O)C3C4CCC5CC(OC6OC(CO)C(O)C(O)C6OC6OC(CO)C(O)C(O)C6O)CCC5(C)C4CCC3(C)C2C1C)COC1OC(CO)C(O)C(O)C1O` (centres unmarked) [Timosaponin E1, timosaponin E1], in series [1], the AUC(0-t) was found to be 286 ± 36.8 ng·h/mL, the half-life was 8.8 ± 3.83 h, the concentration peaked (Cmax) at 18.9 ± 1.54 ng/mL and the Tmax was found to be 4 h. In addition, in series [1], the T1/2 entry was “no obvious difference” and the “shape of plasma concentration-time curve” value is “double peak”. The AUC(0-t) in series [1] (AUC0–t) is 115 ± 5.35 ng·h/mL. Also, the half-life in series [1] (T1/2) was 2.95 ± 0.4 h.

Regarding `CC1=C(CCC(C)COC2OC(CO)C(O)C(O)C2O)OC2CC3C4CCC5CC(OC6OC(CO)C(O)C(O)C6OC6OC(CO)C(O)C(O)C6O)CCC5(C)C4CCC3(C)C12` (centres unmarked) [Anemarsaponin BIII, anemarsaponin BIII], in series [1], the AUC(0-t) worked out at 551 ± 75 ng·h/mL, the half-life was 7.63 ± 3.37 h, the Cmax came to 34.5 ± 3.75 ng/mL and the time to peak (Tmax) came out at 3.75 ± 1.78 h. Further, in series [1], the T1/2 entry is listed as “no obvious difference” and the “shape of plasma concentration-time curve” value is reported as “double peak”. The AUC(0-t) in series [1] (AUC0–t) stood at 257 ± 20.4 ng·h/mL. Moreover, the half-life in series [1] (T1/2) is 2.75 ± 1.14 h.

With `C[C@H]1CC[C@@]2(OC1)O[C@H]1C[C@H]3[C@@H]4CC[C@@H]5C[C@@H](O)CC[C@]5(C)[C@H]4CC[C@]3(C)[C@H]1[C@@H]2C` [sarsasapogenin], in series [2], the “shape of plasma concentration-time curve” value was “single plasma concentration peak”.

These data come from publication PMC6331991, “Anemarrhena asphodeloides Non-Steroidal Saponin Components Alter the Pharmacokinetic Profile of Its Steroidal Saponins in Rat” (Molecules, 2015).
